“And” between values parts separate entries of the source, which are not always exact repeats. Equal entries are not always repeated. Where two headings read alike, the source gives them in different places.
Experiments:
[1] = target: T. cruzi CYP51 (Trypanosoma cruzi, UniProt Q7Z1V1); assay: T. cruzi CYP51 biochemical assay
[2] = bioanalysis of blood samples from in vivo efficacy studies; design: species or system BALB/c mice; details: for AUC0-7h Day 1, unbound concentrations of compound 3 / AUC0-7h Day 5, unbound concentrations of compound 3 / Cmax Day 1, unbound concentrations of compound 3 / Cmax Day 5, unbound concentrations of compound 3: 50mg/kg bid; for AUC0-7h Day 1, unbound concentrations of compound 3 / AUC0-7h Day 5, unbound concentrations of compound 3 / Cmax Day 1, unbound concentrations of compound 3 / Cmax Day 5, unbound concentrations of compound 3 / AUC0-7h Day 1, unbound concentrations of BNZ / AUC0-7h Day 5, unbound concentrations of BNZ / Cmax Day 1, unbound concentrations of BNZ / Cmax Day 5, unbound concentrations of BNZ: 5 days; for AUC(0-t) / Cmax: BALB/c, mouse, whole blood, po, 50 mg/kg, compound 3 50mg/kg bid; for AUC0-7h Day 1, unbound concentrations of BNZ / AUC0-7h Day 5, unbound concentrations of BNZ / Cmax Day 1, unbound concentrations of BNZ / Cmax Day 5, unbound concentrations of BNZ: 30mg/kg qd
Experimental: Following the first daily dose on day 1 and last day of treatment, serial blood samples were taken by the tail vein from all treated mice pre-dose, then 30 minutes, 1, 2, 4, and 8 hours post-dose, mixed with two volumes of distilled water and analyzed for test compound. Quantification of compounds was performed by means of LC/MSMS and exposure parameters namely Cmax and AUClast were estimated using Phoenix 64 (Pharsight Certara).

[3] = system: Vero host cells; assay: cytotoxicity against host cells in intracellular amastigote assay; assay type: cell-based; details: Chlorocebus sabaeus, Vero, host cell cytotoxicity
[4] = system: isolated rat liver mitochondria; assay: calcium loading capacity (CLC) in rat liver mitochondria; assay type: biochemical; details: minimum effective concentration
Experimental: The CLC of freshly isolated liver mitochondria was determined as previously described ([70]). Briefly, mitochondria were suspended at 0.2 mg/ml in incubation buffer B, supplemented with 100 μM arsenazo III, 2.5 μM rotenone and 1 μg/ml oligomycin in each well of a 96 well microplate (control and treated mitochondria were assayed simultaneously) and absorbance measured every 2 seconds at 650 nm in a FlexStation3 microplate reader (Molecular Devices, Sunnyvale, CA, USA). After approximately 1 minute of reading, Ca^2+ was added (0.5-1 μmol/ mg mitochondrial protein) followed by the addition of 10 mM succinate as the mitochondrial substrate. The CLC was calculated as the difference in optical density (ΔOD) between the point at which mitochondria were energized and the point where mitochondrial permeability transition was triggered (i.e., the lowest OD reading before calcium release via MPT).
The concentration-response relationship was modelled using a robust fit of a cubic polynomial regression ([74], [75]). The fitted curves were then used to calculate the Minimum Effective Concentration (MEC). The MEC was defined as the lowest concentration where the fitted curve exceeded 3 standard deviations (SD) around the DMSO mean response. SD was estimated from the deviations of DMSO and compound treated wells around the fitted means, using a robust estimator based on Gini’s mean difference ([76]).

[5] = system: T. cruzi culture derived trypomastigotes, strain Silvio X10/7 A1; assay: trypomastigote assay; assay type: cell-based; details: Trypanosoma cruzi
Experimental: Trypomastigote assays using strain Silvio X10/7 subclone A1 were carried out as described in ([19]). Parasite culture and potency determinations for panel of strains were performed as in ([19]). Strains used were M6241 clone 6 (DTU III), ERA clone 2 (DTU IV), PAH179 clone 5 (DTU V) and CL Brener-Luciferase (PpyRE9h-expressing T. cruzi, same strain that is used in animal model studies ([67])) (DTU VI). […] For Y strain compound exposure time was 3 days. Rate-of-kill assays were carried out as described in ([39]).

[6] = target: T1, Human complex III (bc1), mitochondria from THP-1 (Homo sapiens, UniProt P00156); assay: human complex III inhibition assay; assay type: biochemical
T1 construct: Preparation of mitochondria from a human cell line (THP-1); endogenous in cells; host or cells: THP-1 (human) mitochondria
Experimental: Preparation of mitochondria from a human cell line (THP-1) was performed following published procedure ([72]). The protocol for the assay has been described in ([73]).

[7] = target: T. cruzi complex III (epimastigote lysates) (Trypanosoma cruzi, UniProt Q9T479); assay: T. cruzi complex III assay; assay type: biochemical; details: decylubiquinol substrate
Chain of T. cruzi complex III (epimastigote lysates) (Q9T479 entry or part of it, one chain of several): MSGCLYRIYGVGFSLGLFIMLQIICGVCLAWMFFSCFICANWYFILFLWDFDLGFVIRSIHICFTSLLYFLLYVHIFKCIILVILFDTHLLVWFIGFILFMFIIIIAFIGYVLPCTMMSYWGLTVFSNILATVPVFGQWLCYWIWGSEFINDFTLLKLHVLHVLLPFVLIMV
Experimental: Complex III activity within these lysates was monitored in the presence and absence of compound 3, compound 5 and related analogues from this series, using decylubiquinol as a pseudo-substrate ([43]).
Measurement of complex III activity and inhibition were performed as described previously ([43]).

[8] = dosing group 3 + BNZ (30mg/kg qd)
[9] = read-out: Vero pEC50 (converted)
[10] = read-out: Trypomastigotes pEC50 (converted)
[11] = dosing group BNZ+ 3 (50mg/kg bid)

Chain of T. cruzi CYP51 (Q7Z1V1 whole entry): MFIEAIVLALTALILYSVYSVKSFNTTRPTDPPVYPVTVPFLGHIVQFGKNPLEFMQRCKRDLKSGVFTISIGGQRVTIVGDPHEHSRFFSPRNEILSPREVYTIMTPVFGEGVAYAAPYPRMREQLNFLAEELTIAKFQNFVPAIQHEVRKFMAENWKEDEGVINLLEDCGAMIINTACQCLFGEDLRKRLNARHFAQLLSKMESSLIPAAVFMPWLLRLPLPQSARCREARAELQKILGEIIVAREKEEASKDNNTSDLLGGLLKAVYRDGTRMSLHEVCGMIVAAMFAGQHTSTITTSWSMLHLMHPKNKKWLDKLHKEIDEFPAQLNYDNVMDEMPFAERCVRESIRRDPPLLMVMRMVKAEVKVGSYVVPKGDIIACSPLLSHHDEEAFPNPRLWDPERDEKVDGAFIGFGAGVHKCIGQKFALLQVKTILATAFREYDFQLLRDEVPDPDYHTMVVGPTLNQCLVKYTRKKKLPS

**Q.** For `COc1cc(Cl)ccc1-c1c(C)[nH]c2nc(N)nc(C)c12` [Compound 3, 5-(4-Chloro-2-methoxyphenyl)-4,6-dimethyl-7H-pyrrolo[2,3-d]pyrimidin-2-amine], which IC50 [1] is on record?
**A.** > 100 µM

**Q.** What about the “AUC0-7h Day 1, unbound concentrations of compound 3” value [2, 8] of the same compound?
**A.** 2234 ± 509 ng·h/mL

**Q.** What about the “AUC0-7h Day 5, unbound concentrations of compound 3” value [2, 8] of the same compound?
**A.** 5525 ± 663 ng·h/mL

**Q.** What about the “Cmax Day 1, unbound concentrations of compound 3” value [2, 8] of the same compound?
**A.** 412 ± 88 ng/mL

**Q.** What about the “Cmax Day 5, unbound concentrations of compound 3” value [2, 8] of the same compound?
**A.** 977 ± 129 ng/mL

**Q.** And the “AUC0-7h Day 1, unbound concentrations of compound 3” value ([2]; dosing group 3 alone)?
**A.** 3024 ± 619 ng·h/mL

**Q.** What about the “AUC0-7h Day 5, unbound concentrations of compound 3” value ([2]; dosing group 3 alone) of the same compound?
**A.** 6094 ± 870 ng·h/mL

**Q.** What about the “Cmax Day 1, unbound concentrations of compound 3” value ([2]; dosing group 3 alone) of the same compound?
**A.** 530 ± 95 ng/mL

**Q.** What about the “Cmax Day 5, unbound concentrations of compound 3” value ([2]; dosing group 3 alone) of the same compound?
**A.** 1014 ± 185 ng/mL

**Q.** And the AUC(0-t) ([2]; 10-day study, read-out: AUC0-7h Day 1)?
**A.** 1800 ± 243 ng·h/mL

**Q.** What about the AUC(0-t) ([2]; 10-day study, read-out: AUC0-7h last day) of the same compound?
**A.** 7790 ± 1560 ng·h/mL

**Q.** What about the Cmax ([2]; 10-day study, read-out: Cmax Day 1) of the same compound?
**A.** 325 ± 59 ng/mL

**Q.** And the Cmax ([2]; 10-day study, read-out: Cmax last day)?
**A.** 1250 ± 259 ng/mL

**Q.** And the AUC(0-t) ([2]; 20-day study, read-out: AUC0-7h Day 1)?
**A.** 2740 ± 388 ng·h/mL

**Q.** What about the AUC(0-t) ([2]; 20-day study, read-out: AUC0-7h last day) of the same compound?
**A.** 4920 ± 479 ng·h/mL

**Q.** What about the Cmax ([2]; 20-day study, read-out: Cmax Day 1) of the same compound?
**A.** 480 ± 69 ng/mL

**Q.** What about the Cmax ([2]; 20-day study, read-out: Cmax last day) of the same compound?
**A.** 810 ± 75 ng/mL

**Q.** And the EC50 ([3]; read-out: Vero EC50)?
**A.** > 50 µM

**Q.** What about the EC50 [3, 9] of the same compound?
**A.** > 50.1 µM

**Q.** And the “Calcium loading capacity, rat mitochondria, MEC” value [4]?
**A.** 5.7 µM

**Q.** What about the EC50 ([5]; read-out: Trypomastigotes EC50) of the same compound?
**A.** 10 nM

**Q.** What about the EC50 [5, 10] of the same compound?
**A.** 12.6 nM

**Q.** What about the “% inhibition of human bc1, individual replicates” value (“% inhibition of human bc1” for short) ([6]; 0.09 µM) of the same compound?
**A.** -102.79% and -0.39% and 23.45% and -1.32% and -77.48% and 6.58%

**Q.** What about the inhibition at 0.09 µM ([6]; 0.09 µM) of the same compound?
**A.** -25.3%

**Q.** And the “% inhibition of human bc1” value ([6]; 0.27 µM)?
**A.** -31.71% and -5.91% and 16.57% and 7.05% and 0.38% and 2.42%

**Q.** And the inhibition at 0.27 µM ([6]; 0.27 µM)?
**A.** -1.87%

**Q.** And the “% inhibition of human bc1” value ([6]; 0.82 µM)?
**A.** -55.04% and -6.88% and 19.61% and 6.94% and 1.93% and 10.74%

**Q.** And the inhibition at 0.82 µM ([6]; 0.82 µM)?
**A.** -3.78%

**Q.** What about the “% inhibition of human bc1” value ([6]; 2.47 µM) of the same compound?
**A.** -19.11% and -13.68% and 7.11% and 15.66% and -8.81% and 14.23%

**Q.** And the inhibition at 2.47 µM ([6]; 2.47 µM)?
**A.** -0.76%

**Q.** What about the “% inhibition of human bc1” value ([6]; 7.41 µM) of the same compound?
**A.** -1.93% and 0.10% and 21.95% and 17.90% and 0.73% and -3.46%

**Q.** And the inhibition at 7.41 µM ([6]; 7.41 µM)?
**A.** 5.88%

**Q.** And the “% inhibition of human bc1” value ([6]; 22.22 µM)?
**A.** -14.09% and -16.93% and 21.42% and 11.31% and -5.13%

**Q.** And the inhibition at 22.22 µM ([6]; 22.22 µM)?
**A.** -0.68%

**Q.** And the “% inhibition of human bc1” value ([6]; 66.67 µM)?
**A.** -178.30% and 13.25% and 22.71% and -32.39% and -2.98% and 16.87%

**Q.** And the inhibition at 66.67 µM ([6]; 66.67 µM)?
**A.** -26.8%

**Q.** And the “% inhibition of human bc1” value ([6]; 200.00 µM)?
**A.** 22.88% and 27.88% and 27.19% and -35.32% and 30.21% and 59.63%

**Q.** And the inhibition at 200 µM ([6]; 200.00 µM, read-out: Average % inhibition of human bc1)?
**A.** 22.1%

**Q.** And the inhibition at 200 µM ([6]; 200 μM, read-out: Human complex III inhibition at 200μM)?
**A.** 20%

**Q.** And the “inhibition of human complex III” value ([6]; concentrations up to and including 66.7 μM)?
**A.** did not inhibit

**Q.** What about the IC50 [7] of the same compound?
**A.** 2 ± 0.3 nM

**Q.** Which “AUC0-7h Day 1, unbound concentrations of BNZ” value ([2]; dosing group BNZ alone) does the source give for `O=C(Cn1ccnc1[N+](=O)[O-])NCc1ccccc1` [Benznidazole, reference compound] here?
**A.** 18788 ± 3214 ng·h/mL

**Q.** And the “AUC0-7h Day 5, unbound concentrations of BNZ” value ([2]; dosing group BNZ alone)?
**A.** 12583 ± 1812 ng·h/mL

**Q.** And the “Cmax Day 1, unbound concentrations of BNZ” value ([2]; dosing group BNZ alone)?
**A.** 6928 ± 1302 ng/mL

**Q.** What about the “Cmax Day 5, unbound concentrations of BNZ” value ([2]; dosing group BNZ alone) of the same compound?
**A.** 5230 ± 1373 ng/mL

**Q.** What about the “AUC0-7h Day 1, unbound concentrations of BNZ” value [2, 11] of the same compound?
**A.** 15881 ± 4211 ng·h/mL

**Q.** What about the “AUC0-7h Day 5, unbound concentrations of BNZ” value [2, 11] of the same compound?
**A.** 11350 ± 4513 ng·h/mL

**Q.** What about the “Cmax Day 1, unbound concentrations of BNZ” value [2, 11] of the same compound?
**A.** 5188 ± 1385 ng/mL

**Q.** What about the “Cmax Day 5, unbound concentrations of BNZ” value [2, 11] of the same compound?
**A.** 3725 ± 1302 ng/mL

**Q.** And the EC50 ([3]; read-out: Vero EC50)?
**A.** > 50 µM

**Q.** And the EC50 [3, 9]?
**A.** > 50.1 µM

**Q.** And the EC50 ([5]; read-out: Trypomastigotes EC50)?
**A.** 4000 nM

**Q.** What about the EC50 [5, 10] of the same compound?
**A.** 3980 nM
